Data taken from EP1037886B1, “TRIAZINE ANGIOGENESIS INHIBITORS” (Abbott Laboratories, priority 1997, dated 1999).

System: Human Microvascular Endothelial Cells (HMVEC)
Assay: Endothelial cell migration assay (bFGF induced, modified Boyden chamber)
Assay type: cell-based
Conditions: 4 hours at 37 °C, percent inhibition of migration compared to a positive control; for inhibition at 0.5 µM: 500 nM test substance
Description: The endothelial cell migration assay was performed essentially as described by Polverini, P.J. et al., Methods Enzymol, 198: 440-450 (1991). Briefly, Human Microvascular Endothelial Cells (HMVEC) were starved overnight in DMEM (Dulbecco's Modified Eagle Medium) containing 0.1% bovine serum albumin (BSA). Cells were then harvested with trypsin and resuspended in DMEM with 0.1% BSA at a concentration of 1.5 x 10^6 cells/mL. Cells were added to the bottom of a 48-well modified Boyden chamber (Nucleopore Corporation, Cabin John, MD). The chamber was assembled and inverted, and cells were allowed to attach for 2 hours at 37 °C to polycarbonate chemotaxis membranes (5 µm pore size) that had been soaked in 0.1% gelatin overnight and dried. The chamber was then reinverted and basic fibroblast growth factor (bFGF) and test substances were added to the wells of the upper chamber (to a total volume of 50 µL); the apparatus was then incubated for 4 hours at 37 °C. Membranes were recovered, fixed and stained (DiffQuick, Fisher Scientific, Pittsburgh, PA) and the number of cells that had migrated to the upper chamber per 10 high power fields were counted. Background migration to DMEM + 0.1% BSA was subtracted and the data reported as the number of cells migrated per 10 high power fields (400X) or when results from multiple experiments were combined, as the percent inhibition of migration compared to a positive control.

[1] = Homo sapiens, 600 nM test substance

`Nc1nc(N)nc(-c2cc(Cl)ccc2Cl)n1` [Irsogladine, reference compound] gave an inhibition at 0.6 µM [1] of 53%.

With `Nc1nc(N)nc(C23CC4CC(CC(C4)C2)C3)n1` [Example 52, 6-(tricyclo[3.3.1.1^3.7]decan-1-yl)-1,3,5-triazine-2,4-diamine] the “% inhibition at (nM)” value (600 nM test substance) was 100 (600) %.

`Nc1nc(N)nc(C2COc3ccccc3O2)n1` (stereo not drawn) [Example 51, 6-(2,3-dihydro-1,4-benzodioxin-2-yl)-1,3,5-triazine-2,4-diamine] gave an inhibition at 0.6 µM [1] of 100%.

In the case of `Nc1nc(N)nc(-c2ccc(Cl)nc2)n1` [Example 69, 6-(6-chloro-3-pyridinyl)-1,3,5-triazine-2,4-diamine], the inhibition at 0.5 µM (Homo sapiens) is reported as 39%.

Compound `CCCCC[C@H]1CC[C@H](c2ccc(-c3nc(N)nc(N)n3)cc2)CC1` [Example 8, trans-6-[4-(4-pentylcyclohexyl)phenyl]-1,3,5-triazine-2,4-diamine] has an inhibition at 0.6 µM [1] of 30%.

Work on `Nc1nc(N)nc([C@H]2CC[C@H](c3ccccc3)CC2)n1` [Example 3, trans-6-(4-phenylcyclohexyl)-1,3,5-triazine-2,4-diamine] yielded an inhibition at 0.6 µM [1] of 100%.

With `Nc1nc(N)nc(-c2cnccn2)n1` [Example 60, 6-pyrazinyl-1,3,5-triazine-2,4-diamine] the inhibition at 0.6 µM [1] was 100%.

`Nc1nc(N)nc(-c2ccc(-c3ccc([N+](=O)[O-])cc3)cc2)n1` [Example 7, 6-(4'-nitro[1,1'-biphenyl]-4-yl)-1,3,5-triazine-2,4-diamine] gave an inhibition at 0.6 µM [1] of 100%.

In the case of `Nc1nc(N)nc(-c2cnc3ccccc3c2)n1` [Example 48, 6-(3-quinolinyl)-1,3,5-triazine-2,4-diamine], the inhibition at 0.6 µM [1] is reported as 55%.

With `Nc1nc(N)nc(-c2ccccc2-c2ccccc2)n1` [Example 6, 6-[1,1'-biphenyl]-2-yl-1,3,5-triazine-2,4-diamine] the inhibition at 0.6 µM [1] was 95%.

`Nc1nc(N)nc(-c2nccc3ccccc23)n1` [Example 53, 6-(1-isoquinolinyl)-1,3,5-triazine-2,4-diamine] gave an inhibition at 0.6 µM [1] of 85%.

Compound `Nc1nc(N)nc(Cc2cc3ccccc3s2)n1` [Example 49, 6-(benzo[b]thien-2-ylmethyl)-1,3,5-triazine-2,4-diamine] has an inhibition at 0.6 µM [1] of 14%.

With `CC(=O)Nc1nc(N)nc(-c2ccc(S(=O)(=O)c3ccccc3)cc2)n1` [Example 77, N-acetyl-6-[4-(phenylsulfonyl)phenyl]-1,3,5-triazine-2,4-diamine] the inhibition at 0.5 µM (Homo sapiens) was 50%.

Work on `Nc1nc(N)nc(C2CCN(C(=O)c3ccccc3)CC2)n1` [Example 74, 6-(1-benzoyl-4-piperidinyl)-1,3,5-triazine-2,4-diamine] yielded an inhibition at 0.5 µM (Homo sapiens) of 82%.

For `CC(=O)Nc1nc(NC(C)=O)nc(-c2ccc(S(=O)(=O)c3ccccc3)cc2)n1` [Example 76, N,N'-diacetyl-6-[4-(phenylsulfonyl)phenyl]-1,3,5-triazine-2,4-diamine], the inhibition at 0.5 µM (Homo sapiens) was 33%.

Compound `Nc1nc(N)nc(C2CC3CCC2C3)n1` (stereo not drawn) [Example 65, 6-(bicyclo[2.2.1]hept-2-yl)-1,3,5-triazine-2,4-diamine] has an inhibition at 0.2 µM (Homo sapiens, 200 nM test substance) of 32%.

For `Nc1nc(N)nc(C2CN(C(c3ccccc3)c3ccccc3)C2)n1` [Example 1, 6-[1-(diphenylmethyl)-3-azetidinyl]-1,3,5-triazine-2,4-diamine], the inhibition at 0.6 µM [1] was 20%.

For `Nc1nc(N)nc(-c2ccc3ccccc3n2)n1` [Example 47, 6-(2-quinolinyl)-1,3,5-triazine-2,4-diamine], the inhibition at 0.6 µM [1] was 65%.

For `Nc1nc(N)nc(-c2ccc(Oc3ccccc3)cc2)n1` [Example 9, 6-(4-phenoxyphenyl)-1,3,5-triazine-2,4-diamine], the inhibition at 0.6 µM [1] was 29%.

`Nc1nc(N)nc(-c2cccc(-n3cccc3)c2)n1` [Example 4, 6-[3-(1H-pyrrol-1-yl)phenyl]-1,3,5-triazine-2,4-diamine] was tested, and the inhibition at 0.6 µM [1] was 62%.

In the case of `Nc1nc(N)nc(C23CCN(CC2)CC3)n1` [Example 56, 6-(1-azabicyclo[2.2.2]octan-4-yl)-1,3,5-triazine-2,4-diamine], the inhibition at 0.6 µM [1] is reported as 30%.

For `Nc1nc(N)nc(-c2ccc(NC(=O)NC3CCCCC3)cc2)n1` [Example 10, N-cyclohexyl-N'-[4-(4,6-diamino-1,3,5-triazin-2-yl)phenyl]urea], the inhibition at 0.6 µM [1] was 29%.

For `Nc1nc(N)nc(-c2ccc(S(=O)(=O)c3ccccc3)cc2)n1` [Example 58, 6-[4-(phenylsulfonyl)phenyl]-1,3,5-triazine-2,4-diamine], the inhibition at 0.6 µM [1] was 100%.

Compound `Cc1ccc(-c2nc(N)nc(N)n2)cn1` [Example 68, 6-(6-methyl-3-pyridinyl)-1,3,5-triazine-2,4-diamine] has an inhibition at 0.5 µM (Homo sapiens) of 73%.

`Nc1nc(N)nc(-c2ccc(NC(=O)Nc3ccccc3)cc2)n1` [Example 12, N-[4-(4,6-diamino-1,3,5-triazin-2-yl)phenyl]-N'-phenyl urea] was tested, and the inhibition at 0.6 µM [1] was 36%.

`CC1(C)C=Cc2cc(-c3nc(N)nc(N)n3)ccc2O1` [Example 50, 6-(2,2-dimethyl-2H-1-benzopyran-6-yl)-1,3,5-triazine-2,4-diamine] was tested, and the inhibition at 0.6 µM [1] was 100%.

Compound `Nc1nc(N)nc(N2CCC3(CC2)OCCO3)n1` [Example 13, 6-(1,4-dioxa-8-azaspiro[4,5]dec-8-yl)-1,3,5-triazine-2,4-diamine] has an inhibition at 0.6 µM [1] of 53%.

In the case of `Nc1nc(N)nc(C2CCN(Cc3ccccc3)CC2)n1` [Example 75, 6-[1-(phenylmethyl)-4-piperidinyl]-1,3,5-triazine-2,4-diamine], the inhibition at 0.5 µM (Homo sapiens) is reported as 16%.

In the case of `Nc1nc(N)nc(-c2ccc3c(c2)OCCO3)n1` [Example 55, 6-(2,3-dihydro-1,4-benzodioxin-6-yl)-1,3,5-triazine-2,4-diamine], the inhibition at 0.6 µM [1] is reported as 84%.

Work on `CNc1nc(NC)nc(-c2ccc(-c3ccccc3)cc2)n1` [Example 63, 6-[1,1'-biphenyl]-4-yl-N,N'-dimethyl-1,3,5-triazine-2,4-diamine] yielded an inhibition at 0.5 µM (Homo sapiens) of 79%.
